From patent US20230131339A1, “EPI-X4 BASED PEPTIDES AND DERIVATIVES THEREOF” (Universitaet Ulm, priority 2020, published 2023)
Where a SMILES comes first, the peptide text is derived from it. Where no end group is shown, it is not given here. Side-chain parts run from the residue outwards. [ ]: non-standard residue; d: D form. The star is where a group is joined. Palmitoyl = CCCCCCCCCCCCCCCC(=O)*; Glu = glutamate linker

What was measured:
[1] = system: CXCL12-induced ERK signaling; assay: ERK/AKT signaling assay in SupT1 cells: ERK phosphorylation; type: cell-based
Protocol: (§1) Third, the activity of the claimed EPI-X4 derivatives was tested by the effect on CXCL12/CXCR4-mediated ERK (Extracellular-signal Regulated Kinases) and AKT (a serine/threonine-protein kinase) signaling (FIG. 3). In that assay CXCR4 expressing cells are stimulated with the CXCR4 chemokine-ligand CXCL12, which subsequently leads to phosphorylation of ERK and AKT. Preincubation of cells with CXCR4-antagonists blocks those pathways. […] Two or three independent experiments were carried out in triplicates for each peptide in each assay. The error bars refer to the standard deviation.
(§2) ERK/AKT signaling assay. CXCL12 induced ERK and AKT phosphorylation was determined in SupT1 cells. For this, 100,000 cells were seeded per well in a 96-V well plate in 100 μl medium supplemented with 1% FCS. Cells were incubated for 2 hours at 37° C. before 5 μl of compounds were added. After 15 min incubation at 37° C. cells were stimulated by adding 5 μl CXCL12 diluted in PBS to reach a final concentration of 100 ng/ml. Cells were further incubated for 2 min before the reaction was stopped by adding 20 μl of 10% PFA. Cells were fixed for 15 min at 4° C. before PFA was removed and cells permeabilized by adding 100 μl ice cold methanol. After 15 min at 4° C. the methanol was removed, cells were washed and 30 μl primary antibody was added (phospho-p44/42 MAPK (Erk1) (Tyr204)/(Erk2) (Tyr187) (D1H6G) mouse mAb #5726; phosphor-Akt (Ser473) (193H12) rabbit mAb #4058 Cell Signaling) for 1 hour at 4° C. After the antibody was removed and cells were washed secondary antibody was added for 30 min. Cells were washed afterwards and subsequently analyzed by flow cytometry.

[2] = system: CXCR4-tropic X4-HIV-1 (NL4-3); type: cell-based; conditions: for IC50: CXCR4-tropic X4- (NL4-3)
[3] = system: CXCL12-induced AKT signaling; assay: ERK/AKT signaling assay in SupT1 cells: AKT phosphorylation; type: cell-based
Protocol: as §1, §2

[4] = system: CXCL12 induced migration of T-cells; assay: Migration assay (transwell, Jurkat cells); type: cell-based
Protocol: For each peptide, three independent experiments were performed. The error bars refer to the standard deviation.
Migration assay. Migration assays were performed using 96-well transwell assay plates (Corning Incorporated, Kennebunk, Me., USA) with 5 μm polycarbonate filters. […] Next, 75 μL (0.5×10^5 cells) of Jurkat cells (in assay buffer), together with/without the compounds, were added into the upper chambers. After 4 h at 37° C. (5% CO2), 100 μL of the lower chambers were transferred to a fresh 96 V-well plate and analyzed with Cell-Titer-Glo® assay (Promega, Madison, Wis., USA). The percentage of migrated cells was calculated as described by Balabanian et al. (2005). In order to obtain the relative migration in %, the percentage of migrated cells were normalized to the CXCL12-only control.

[5] = system: CXCL12 induced Ca2+-signalling; assay: Ca++ signaling in BCR-ABL-transformed murine bone marrow cells; type: cell-based; conditions: 1 μM
Protocol: Fifth, it was shown that the peptide derivatives inhibit calcium-signaling. CXCL12 stimulation of CXCR4 expressing B-cells leads to a strong calcium-release. In the presence of CXCR4 antagonists this response is reduced.
For calcium measurement, 1×10^6 BCR-ABL-transformed murine bone marrow cells were incubated with 5 μg/mL of Indo-1 (Molecular Probes) and 0.5 μg/mL of pluronic F-127 (Molecular Probes) in Iscove's medium supplemented with 1% FCS (Pan Biotech) at 37° C. for 45 min. Cells were then washed by centrifugation and the cell pellets were resuspended in Iscove's medium with 1% FCS and treated with the EPI-X4 derivatives (1 μM or 0.5 μM) for 10 minutes at room temperature. Cells were pre-warmed for 5 minutes at 37° C. Calcium flux was assessed by FACS measurement at BD LSR Fortessa. After 30 seconds of baseline recording, CXCR4-dependent calcium signaling was determined by stimulating with 100 ng/ml of mouse SDF-1a (PeproTech).

[6] = mice, i.v. tail vein
Protocol: Peptides were injected into the tail vein of mice. 4 hours post injection, mice were sacrificed and blood taken by heart punctation. Plasma was obtained by centrifugation and tested for remaining activity in antibody competition assay. As control, peptide was spiked into native plasma (ex vivo). IC50 values were determined by non-linear regression assuming 1.8 ml in vivo blood volume. Remaining activity was determined by IC50 (ex vivo)/IC50 (in vivo)×100. The tested peptides included JM #143 (SEQ ID NO.: 54), JM #144 (SEQ ID NO.: 55), JM #192 (SEQ ID NO.: 89), JM #180 (SEQ ID NO.: 77), JM #194 (SEQ ID NO.: 91), JM #235 (SEQ ID NO.: 130), JM #198 (SEQ ID NO.: 95), JM #255 (SEQ ID NO.: 150), JM #257 (SEQ ID NO.: 152) and JM #204 (SEQ ID NO.: 99). […] Shown are data from 2 individual mice measured in duplicates.
In vivo stability assay. 100 μl of a 700 μg/ml stock solution of the peptide in 0.9% NaCl was intravenously injected in the tail vein of C57BL/6NCrl (BL6) mice. 4 hours post injection, mice were killed by cervical dislocation. Mouse plasma was obtained by heart punctation. Blood was 19:1 diluted with 0.16 M NaEDTA and centrifuged at 2000×g for 20 min at 4° C. to obtain plasma. Plasma was stored at −80° C. till remaining peptide activity in the plasma was determined by 12G5 antibody competition assay.

[7] = Functional stability assay in human plasma; conditions: human, plasma
Protocol: Fourth, the stability of peptides in human plasma and whole human blood was tested (FIG. 4). The functional stability of EPI-X4 (SEQ ID NO.: 1) derivatives was screened using a CXCR4 antibody-based screening approach. Peptides were diluted in full human plasma or blood (>99%) and the functional activity was then measured after either 2 hours or 8 hours and compared to a sample that was not incubated in plasma or blood.
In this test, the peptides were incubated in human plasma for a certain time period.
Stability assay. Whole blood was collected from healthy donors in EDTA tubes and directly used or subsequently centrifuged for 15 min at 2,500×g to obtain plasma. Plasma from 6 donors was pooled and stored in aliquots at −80° C. Compounds were 200-fold diluted in human plasma or whole human blood to reach final concentrations of 20 μM. The t=0 sample was immediately taken and stored at −80° C. Plasma/compound or blood/compound mixture was then transferred to 37° C. and shook at 350 rpm. At given time points samples were taken and stored at −80° C.°. For measuring the functional activity of the plasma/peptide samples, the mixtures were thawed and diluted in ice cold PBS. 12G5-APC antibody competition was then performed as described before. For blood/peptide functional stability, samples were thawed and centrifuged at 14,000 rpm to remove cells and debris. The supernatant was then diluted in PBS and 12G5-antibody competition assay was performed. After the 2 hours incubation, the cells were washed and 50 μl of 1-step-Fix/Lyse solution (Thermo Fisher #00-5333-54) was added for 15 minutes at room temperature. Afterwards cells were washed again and analyzed for bound antibody.

[8] = target: CXC chemokine receptor type 4 (CXCR4) (human, UniProt P61073 1-352); assay: cell-based or functional assay
[9] = target: T1, CXC chemokine receptor type 4 (CXCR4) (human, UniProt P61073 1-352); assay: competition
T1 chain: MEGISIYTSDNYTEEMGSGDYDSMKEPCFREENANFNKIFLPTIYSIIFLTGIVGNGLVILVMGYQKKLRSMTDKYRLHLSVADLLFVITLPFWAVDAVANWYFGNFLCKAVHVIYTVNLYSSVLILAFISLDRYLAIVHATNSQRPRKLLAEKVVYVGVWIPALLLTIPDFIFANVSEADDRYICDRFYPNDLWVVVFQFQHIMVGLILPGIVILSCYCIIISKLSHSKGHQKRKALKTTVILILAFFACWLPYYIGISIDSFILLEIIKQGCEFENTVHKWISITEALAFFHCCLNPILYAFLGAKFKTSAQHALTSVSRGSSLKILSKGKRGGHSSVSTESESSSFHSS

[10] = target: T1, CXC chemokine receptor type 4 (CXCR4); assay: competition
[11] = target: T1, CXC chemokine receptor type 4 (CXCR4); assay: 12G5 antibody competition

CCCCCCCCCCCCCCCC(=O)N[C@@H](CCC(=O)NCCCC[C@H](NC(=O)[C@H](CCCNC(=N)N)NC(=O)[C@H](CO)NC(=O)[C@H](Cc1c[nH]c2ccccc12)NC(=O)[C@H](CCCNC(=N)N)NC(=O)[C@H](CC(C)C)NC(=O)[C@@H](N)[C@@H](C)CC)C(=O)N[C@@H](CC(C)C)C(=O)N1CCC[C@H]1C(=O)N[C@@H](CS)C(=O)N[C@H](C(=O)N[C@@H](CO)C(=O)O)C(C)C)C(=O)O [JM #143, ILRWSRK(Glu-Pal)LPCVS]
reduction of CXCL12-induced ERK signaling ([1]; 0.1 μM): 20-25% | reduction of CXCL12-induced ERK signaling ([1]; 1 μM): ~70% | IC50 [2]: 5 nM | fold increase of anti-HIV-1 potency compared to WSC02 ([2]; compared to WSC02): more than 60 fold | reduction of CXCL12-induced AKT signaling ([3]; 0.1 μM): 20-25% | reduction of CXCL12-induced AKT signaling ([3]; 1 μM): ~70% | inhibition of CXCL12 induced migration of T-cells (in words) [4]: strongly increased antagonistic effect in CXCL12 induced cell migration | reduction of CXCL12 induced calcium-signaling [5]: almost completely blocked calcium-signaling

CCCCCCCCCCCCCCCC(=O)NCCCC[C@H](NC(=O)[C@H](CCCNC(=N)N)NC(=O)[C@H](CO)NC(=O)[C@H](Cc1c[nH]c2ccccc12)NC(=O)[C@H](CCCNC(=N)N)NC(=O)[C@H](CC(C)C)NC(=O)[C@@H](N)[C@@H](C)CC)C(=O)N[C@@H](CC(C)C)C(=O)N1CCC[C@H]1C(=O)N[C@@H](CS)C(=O)N[C@H](C(=O)N[C@@H](CO)C(=O)O)C(C)C [JM #144, ILRWSRK(Pal)LPCVS]
remaining activity in plasma in vivo 4 hours post injection ([6]; 4 hours post injection): 27% | reduction of CXCL12 induced calcium-signaling [5]: almost completely blocked calcium-signaling

CCCCCCCCCCCCCCCC(=O)N[C@@H](CCC(=O)O)C(=O)NCCCC[C@H](NC(=O)[C@H](CCCNC(=N)N)NC(=O)[C@H](CO)NC(=O)[C@H](Cc1c[nH]c2ccccc12)NC(=O)[C@H](CCCNC(=N)N)NC(=O)[C@H](CCSC)NC(=O)[C@H](N)CC(C)C)C(N)=O [JM #194, d-LMRWSRK(Glu-Pal)-NH2] (H-[dL]MRWSRK([Glu-Palmitoyl])-NH2; N-terminus assumed)
remaining activity in plasma in vivo 8 hours post injection ([6]; 8 hours post injection): about 9% | anti-HIV-1 activity (in words) [2]: strongly increased anti-HIV-1 activity | IC50 [2]: 2 nM | inhibition of CXCL12 induced migration of T-cells (in words) [4]: high activity | reduction of CXCL12 induced calcium-signaling [5]: almost completely blocked calcium-signaling

CCCCCCCCCCCCCCCC(=O)NCCCC[C@H](NC(=O)[C@H](CCCNC(=N)N)NC(=O)[C@H](CO)NC(=O)[C@H](Cc1c[nH]c2ccccc12)NC(=O)[C@H](CCCNC(=N)N)NC(=O)[C@H](CC(C)C)NC(=O)[C@@H](N)[C@@H](C)CC)C(N)=O [JM #170, ILRWSRK(Pal)-NH2] (H-ILRWSRK(Palmitoyl)-NH2)
reduction of CXCL12 induced calcium-signaling [5]: almost completely blocked calcium-signaling

CC[C@H](C)[C@H](N)C(=O)N[C@@H](CC(C)C)C(=O)N[C@@H](CCCNC(=N)N)C(=O)N[C@@H](Cc1c[nH]c2ccccc12)C(=O)N[C@@H](CO)C(=O)N[C@@H](CCCNC(=N)N)C(=O)N[C@@H](CCCCN)C(N)=O [JM #118, ILRWSRK-NH2] (H-ILRWSRK-NH2)
functional stability in human plasma (in words) [7]: rapidly inactivated in plasma | inhibition of CXCL12 induced migration of T-cells (in words) [4]: even more effective than the full-length peptide

ILRWSRK-NH2 [JM#118]
IC50, HIV inhibition assay [8]: > 150 nM | IC50 [9]: 181 nM | IC50 [10]: 224 nM

[dM]LRWSRKK([Glu-Palmitoyl])-NH2 [JM#197]
IC50 [11]: 5 nM

[dL]MRWSRKK([Glu-Palmitoyl])-NH2 [JM#195]
IC50 [11]: 3 nM

[dL]MRWSRKMPCVS [JM#36]
IC50 [11]: 305 nM

ILRWSRK([Glu-Palmitoyl])LPCVS [JM#143]
IC50 [9]: 204 nM | IC50 [10]: 176 nM

ILRWSRK(Palmitoyl)LPCVS [JM#144]
IC50, X4-HIV-1 inhibition assay [8]: < 5 nM | IC50 [9]: 125 nM | IC50 [10]: 87 nM

[dI]LRWSRKLP-NH2 [JM#174]
IC50, HIV inhibition assay [8]: > 150 nM | IC50 [11]: 480 nM
